The values that follow are results of earlier work, collected in patent US20200315935A1, “TOPICALLY APPLICABLE CHEMICAL PEEL COMPOSITION” (L'OREAL, priority 2015, published 2020).

Read-outs that look alike come from different tables or passages of the source.

For series [1] the following is noted: acute oral toxicity, mutagenicity, skin irritation, skin sensitization, and phototoxicity.

As to `CC(c1ccccc1)c1ccc(O)cc1O` (stereo not shown) [Phenylethyl Resorcinol], the pKA was 9.77-10.77. Moreover, in series [1] (listed as Phenylethyl resorcinol), the “adverse effects in basic toxicological tests” value is listed as “not shown adverse effects”. Besides, in series [1] (listed as phenylethyl resorcinol), the “adverse effects in basic toxicological tests” value is given as “not been shown to have adverse effects”.

With `Oc1cccc(O)c1` [Resorcinol, reference compound], the pKA is on record as 9.32-9.81.
